Results taken from PubChem BioAssay AID1259411 (Chemical Carcinogenesis Research Information System (CCRIS), 2018).
Calls of active or inactive are those of the source. No rule for the calls is given here.

Test system: rodent carcinogenicity bioassays, tumor incidence
Experiment: CCRIS carcinogenicity studies
Description: The CCRIS database contains chemical records with carcinogenicity, mutagenicity, tumor promotion, and tumor inhibition test results. It was developed by the National Cancer Institute (NCI). Data are derived from studies cited in primary journals, current awareness tools, NCI reports, and other sources. Test results have been reviewed by experts in carcinogenesis and mutagenesis.
CCRIS provides historical information from the years 1985 - 2011. It is no longer updated.
This is an archive assay for CCRIS carcinogenicity studies.

C=CCl
carcinogen call (Species: HAMSTER, Strain/Sex: SYRIAN/MALE, Route: INHALATION, Dose: 0, 50, 250, 500, 2500, 6000, 10000 PPM 4 HR/D, 5 D/WK FOR (STUDY DURATION: 109 WK), Dose: 0, 50, 250, 500, 2500, 6000, 10000 PPM 4 HR/D, 5 D/WK FOR (STUDY DURATION: 109 WK), Tumor Site: Type of Lesion: INTEGUMENTARY SYSTEM (SKIN): EPITHELIOMA, FORESTOMACH: PAPILLOMA OR ACANTHOMA, LIVER: ANGIOMA OR ANGIOSARCOMA, Tumor Site: Type of Lesion: INTEGUMENTARY SYSTEM (SKIN): EPITHELIOMA, FORESTOMACH: PAPILLOMA OR ACANTHOMA, LIVER: ANGIOMA OR ANGIOSARCOMA): active; positive
carcinogen call (Species: HAMSTER, Strain/Sex: SYRIAN, Route: INHALATION, Tumor Site: Type of Lesion: LIVER): active; positive
carcinogen call (Species: HUMAN, Route: INHALATION, Tumor Site: Type of Lesion: LIVER, BRAIN, LUNG, Tumor Site: Type of Lesion: LIVER, BRAIN, LUNG): active; positive
carcinogen call (Species: MOUSE, Strain/Sex: ICR/FEMALE, Route: INHALATION, Dose: 0, 50, 500, 5000, 50000 PPM ONCE FOR 1 HR (STUDY DURATION: 18 MO), Dose: 0, 50, 500, 5000, 50000 PPM ONCE FOR 1 HR (STUDY DURATION: 18 MO), Tumor Site: Type of Lesion: LUNG: ALVEOLAR/BRONCHIOLAR ADENOMA OR CARCINOMA): active; positive
carcinogen call (Species: MOUSE, Strain/Sex: ICR/MALE, Route: INHALATION, Dose: 0, 50, 500, 5000, 50000 PPM ONCE FOR 1 HR (STUDY DURATION: 18 MO), Dose: 0, 50, 500, 5000, 50000 PPM ONCE FOR 1 HR (STUDY DURATION: 18 MO), Tumor Site: Type of Lesion: LUNG: ALVEOLAR/BRONCHIOLAR ADENOMA OR CARCINOMA): active; positive
carcinogen call (Species: MOUSE, Strain/Sex: SWISS/MALE,FEMALE, Route: INHALATION, Dose: 0, 50, 250, 500, 2500, 6000, 10000 PPM 4 HR/D, 5 D/WK FOR 30 WK (STUDY DURATION: 81 WK), Dose: 0, 50, 250, 500, 2500, 6000, 10000 PPM 4 HR/D, 5 D/WK FOR 30 WK (STUDY DURATION: 81 WK), Tumor Site: Type of Lesion: LIVER: ANGIOMA, ANGIOSARCOMA, LUNG: TUMOR (NOS), MAMMARY GLAND: CARCINOMA, Tumor Site: Type of Lesion: LIVER: ANGIOMA, ANGIOSARCOMA, LUNG: TUMOR (NOS), MAMMARY GLAND: CARCINOMA): active; positive
carcinogen call (Species: MOUSE, Strain/Sex: SWISS, Route: INHALATION, Tumor Site: Type of Lesion: LIVER, LUNG, MAMMARY GLAND, Tumor Site: Type of Lesion: LIVER, LUNG, MAMMARY GLAND): active; positive
carcinogen call (Species: RAT, Route: INHALATION, Tumor Site: Type of Lesion: LIVER, LUNG, KIDNEY, EAR (ZYMBAL GLAND), Tumor Site: Type of Lesion: LIVER, LUNG, KIDNEY, EAR (ZYMBAL GLAND)): active; positive
carcinogen call (Species: RAT, Strain/Sex: SPRAGUE-DAWLEY/FEMALE, Route: GAVAGE, Dose: 0, 0.03, 0.3, 1, 3.33, 16.65, 50 MG/KG BW IN OLIVE OIL 1/D 4-5 D/WK FOR 52-59 WK (STUDY DURATION: LIFETIME), Dose: 0, 0.03, 0.3, 1, 3.33, 16.65, 50 MG/KG BW IN OLIVE OIL 1/D 4-5 D/WK FOR 52-59 WK (STUDY DURATION: LIFETIME), Tumor Site: Type of Lesion: [BRAIN WAS ONLY SITE EVALUATED]): inactive; negative
carcinogen call (Species: RAT, Strain/Sex: SPRAGUE-DAWLEY/FEMALE, Route: INHALATION, Dose: 0, 50, 250, 500, 2500, 6000, 10000 PPM IN AIR 4 HR/D 5 D/WK FOR 17 WK (STUDY DURATION: LIFETIME), Dose: 0, 50, 250, 500, 2500, 6000, 10000 PPM IN AIR 4 HR/D 5 D/WK FOR 17 WK (STUDY DURATION: LIFETIME), Tumor Site: Type of Lesion: BRAIN: NEUROBLASTOMA [ONLY SITE EVALUATED]): active; positive
carcinogen call (Species: RAT, Strain/Sex: SPRAGUE-DAWLEY/FEMALE, Route: INHALATION, Dose: 0, 2500 PPM 4 HR/D 5 D/WK FOR 7 WK THEN 7 HR/D 5 D/WK FOR 8 WK ADMINISTERED TO RAT EMBRYOS BEGINNING ON 12TH DAY OF GEST, Tumor Site: Type of Lesion: LIVER: HEPATOMA, ANGIOSARCOMA, BRAIN: NEUROBLASTOMA): active; positive
carcinogen call (Species: RAT, Strain/Sex: SPRAGUE-DAWLEY/FEMALE, Route: INHALATION, Dose: 0, 2500 PPM 4 HR/D 5 D/WK FOR 7 WK THEN 7 HR/D 5 D/WK FOR 69 WK ADMINISTERED TO BREEDER RATS (STUDY DURATION: 76 WK), Tumor Site: Type of Lesion: BRAIN: NEUROBLASTOMA, LIVER, HEPATOCARCINOMA, ANGIOSARCOMA, Tumor Site: Type of Lesion: BRAIN: NEUROBLASTOMA, LIVER, HEPATOCARCINOMA, ANGIOSARCOMA): active; positive
carcinogen call (Species: RAT, Strain/Sex: SPRAGUE-DAWLEY/FEMALE, Route: INHALATION, Dose: 0, 2500 PPM 4 HR/D 5 D/WK FOR 7 WK THEN 7 HR/D 5 D/WK FOR 69 WK ADMINISTERED TO RAT EMBRYOS BEGINNING ON 12TH DAY OF GES, Tumor Site: Type of Lesion: BRAIN: NEUROBLASTOMA, LIVER, HEPATOCARCINOMA, ANGIOSARCOMA, Tumor Site: Type of Lesion: BRAIN: NEUROBLASTOMA, LIVER, HEPATOCARCINOMA, ANGIOSARCOMA): active; positive
carcinogen call (Species: RAT, Strain/Sex: SPRAGUE-DAWLEY/FEMALE, Route: INHALATION, Dose: 0, 6000, 10000 PPM IN AIR 1 HR/D 4 D/WK FOR 25 WK (STUDY DURATION: LIFETIME), Dose: 0, 6000, 10000 PPM IN AIR 1 HR/D 4 D/WK FOR 25 WK (STUDY DURATION: LIFETIME), Tumor Site: Type of Lesion: [BRAIN WAS ONLY SITE EVALUATED]): inactive; negative
